In publication PMC9607427, “Novel 7-Chloro-(4-thioalkylquinoline) Derivatives: Synthesis and Antiproliferative Activity through Inducing Apoptosis and DNA/RNA Damage” (Pharmaceuticals, 2022):
Read-outs that look alike come from different tables or passages of the source.

Assays:
Cytotoxic MTS assay, BJ = type: cell-based, human; settings: human, BJ cells (noncancerous foreskin fibroblasts); MTS, 72 h of incubation
Procedure: (§1) In vitro cytotoxic activity of final compounds 5–82 was evaluated after 3 days of incubation against eight cell lines derived from human solid tumors including lung (A549 cells) and colon (HCT116 and HCT116p53−/−) carcinomas, as well as leukemia cell lines (CCRF-CEM, CEM-DNR, K562, and K562-TAX) and osteosarcoma (U2OS cells). For comparison, non-malignant BJ and MRC-5 fibroblasts, and BJLD and MCR-5LD fibroblasts doxorubicin-resistant cell lines were used. Concentrations inhibiting the cell growth by 50% (IC50) were determined using a quantitative metabolic staining with 3-(4,5-dimethylthiazol-2yl)-5-(3-carboxymethoxyphenyl)-2-(4-sulfophenyl)-2H-tetrazolium (MTS) and are summarized in (Table 3).
(§2) Cytotoxic activity was determined by MTS assay following 72 h of incubation. IC50 is the lowest concentration that kills 50% of cells. The standard deviation in cytotoxicity assays is typically up to 20% of the average value. […] The tested cell lines: A549 (lung adenocarcinoma), BJ (noncancerous human fibroblasts from foreskin), BJLD (human lung fibroblast doxorubicin-resistant), CCRF-CEM (childhood T cell acute lymphoblastic leukemia), a daunorubicin-resistant subline of CCRF-CEM cells (CEM-DNR bulk), HCT116 (colorectal carcinoma), HCT116p53−/− (HCT116 with deleted p53 gene), K562 (chronic myeloid leukemia), K562-TAX (chronic myeloid leukemia paclitaxel-resistant subline), MRC-5 (noncancerous human lung fibroblasts), MRC-5LD (noncancerous human lung fibroblasts doxorubicin-resistant), and U2OS (osteosarcoma).
(§3) All cell lines were purchased from the American Tissue Culture Collection (ATCC). The A549 cell line is lung adenocarcinoma. MRC-5 and BJ cell lines were used as a non-tumor control and represent human fibroblasts. (MRC-5 LD and BJLD) are doxorubicin-resistant human lung fibroblast cell lines. The CCRF-CEM line is derived from T lymphoblastic leukemia, evincing high chemosensitivity, whereas K562 represent cells from an […] patient sample with bcr-abl translocation. The daunorubicin-resistant subline of CCRF-CEM cells (CEM-DNR bulk) and paclitaxel-resistant subline K562-TAX were selected in our laboratory by the cultivation of maternal cell lines in increasing concentrations of daunorubicin or paclitaxel, respectively. The CEM-DNR bulk cells overexpress MRP-1 and P-glycoprotein protein, whereas K562-TAX cells overexpress P-glycoprotein only. Both proteins belong to the family of ABC transporters and are involved in the primary and/or acquired multidrug-resistance phenomenon. The U2OS cell line is derived from osteosarcoma, HCT116 is a colorectal tumor cell line and its p53 gene knock-down counterpart (HCT116p53−/−, Horizon Discovery Ltd., Cambridge, UK) is a model of human cancers with p53 mutation frequently associated with poor prognosis. The cells were maintained in nunc/corning 80 cm^2 plastic tissue culture flasks and cultured in a cell culture medium according to ATCC or Horizon recommendations (DMEM/RPMI 1640 with 5 g/L glucose, 2 mM glutamine, 100 U/mL penicillin, […], 10% fetal calf serum, and NaHCO3).
(§4) The activity of compounds was determined using a standard 3-(4,5-dimethylthiazol-2-yl)-5-(3-carboxymethoxyphenyl)-2-(4-sulfophenyl)-2H-tetrazolium (MTS) and it was performed at the Institute of Molecular and Translational Medicine by a robotic platform (High-ResBiosolutions). Cell suspensions were prepared and diluted according to the particular cell type and the expected target cell density (25,000–35,000 cells/mL based on cell growth characteristics). Cells were added by automatic pipettor (30 µL) into 384-well microtiter plates. All tested compounds were dissolved in 100% DMSO and four-fold dilutions of the intended test concentration were added in 0.15 µL aliquots at time zero to the microtiter plate wells by the echo acoustic non-contact liquid handler Echo550 (Labcyte). […]

[1] = Cytotoxic MTS assay, BJLD; type: cell-based, human; settings: human, BJLD cells (fibroblasts, doxorubicin-resistant); MTS, 72 h of incubation
Procedure: as §1, §2, §3, §4

U2OS (osteosarcoma) = experiment: Cytotoxic MTS assay, U2OS; type: cell-based, human
Procedure: as §1, §2, §3, §4

[2] = Cytotoxic MTS assay, MRC-5; type: cell-based, human; settings: human, MRC-5 cells (noncancerous lung fibroblasts); MTS, 72 h of incubation
Procedure: as §1, §2, §3, §4

[3] = Cytotoxic MTS assay, MRC-5LD; type: cell-based, human; settings: human; MTS, 72 h of incubation; read-out: Cytotoxic activity IC50, MRC5-LD
Procedure: as §1, §2, §3, §4

[4] = system: CEM-DNR bulk (daunorubicin-resistant subline of CCRF-CEM cells); experiment: Cytotoxic MTS assay, CEM-DNR; type: cell-based, human
Procedure: as §1, §2, §3, §4

[5] = system: K562-TAX (chronic myeloid leukemia paclitaxel-resistant subline); experiment: Cytotoxic MTS assay, K562-TAX; type: cell-based, human
Procedure: as §1, §2, §3, §4

[6] = system: A549 (lung adenocarcinoma); experiment: Cytotoxic MTS assay, A549; type: cell-based, human
Procedure: as §1, §2, §3, §4

[7] = system: K562 (chronic myeloid leukemia); experiment: Cytotoxic MTS assay, K562; type: cell-based, human
Procedure: as §1, §2, §3, §4

[8] = system: CCRF-CEM (childhood T cell acute lymphoblastic leukemia); experiment: Cytotoxic MTS assay, CCRF-CEM; type: cell-based, human
Procedure: as §1, §2, §3, §4

[9] = system: HCT116p53−/− (HCT116 with deleted p53 gene); experiment: Cytotoxic MTS assay, HCT116p53−/−; type: cell-based, human; settings: Homo sapiens, HCT-116; MTS, 72 h of incubation; read-out: Cytotoxic activity IC50, HCT116-p53
Procedure: as §1, §2, §3, §4

[10] = system: HCT116 (colorectal carcinoma); experiment: Cytotoxic MTS assay, HCT116; type: cell-based, human
Procedure: as §1, §2, §3, §4

[11] = system: eight human cancer and 4 non-tumor cell lines; experiment: Cytotoxic MTS assay, whole panel of tested cell lines; type: cell-based
Procedure: as §1, §2, §3, §4

[12] = system: BJ (noncancerous human fibroblasts from foreskin); experiment: Cytotoxic MTS assay, BJ; type: cell-based
Procedure: as §1, §2, §3, §4

[13] = system: BJLD (human lung fibroblast doxorubicin-resistant); experiment: Cytotoxic MTS assay, BJLD; type: cell-based
Procedure: as §1, §2, §3, §4

[14] = system: MRC-5 (noncancerous human lung fibroblasts); experiment: Cytotoxic MTS assay, MRC-5; type: cell-based
Procedure: as §1, §2, §3, §4

[15] = system: MRC-5LD (noncancerous human lung fibroblasts doxorubicin-resistant); experiment: Cytotoxic MTS assay, MRC-5LD; type: cell-based
Procedure: as §1, §2, §3, §4

[16] = Homo sapiens, U2OS, MTS, 72 h of incubation, read-out: Cytotoxic activity IC50, U2OS
[17] = Homo sapiens, CEM-DNR, MTS, 72 h of incubation, read-out: Cytotoxic activity IC50, CEM-DNR
[18] = Homo sapiens, K562-Tax, MTS, 72 h of incubation, read-out: Cytotoxic activity IC50, K562-TAX
[19] = Homo sapiens, A549, MTS, 72 h of incubation, read-out: Cytotoxic activity IC50, A549
[20] = Homo sapiens, K562, MTS, 72 h of incubation, read-out: Cytotoxic activity IC50, K562
[21] = Homo sapiens, CCRF-CEM, MTS, 72 h of incubation, read-out: Cytotoxic activity IC50, CCRF-CEM
[22] = Homo sapiens, HCT-116, MTS, 72 h of incubation, read-out: Cytotoxic activity IC50, HCT116

Row | Compound | IC50 at 72 h (Cytotoxic MTS assay, BJ) [µM] | IC50 at 72 h [1] [µM] | IC50 (U2OS (osteosarcoma); [16]) [µM] | IC50 at 72 h [2] [µM] | IC50 at 72 h [3] [µM] | IC50 [4, 17] [µM] | IC50 [5, 18] [µM] | IC50 [6, 19] [µM] | IC50 [7, 20] [µM] | IC50 [8, 21] [µM] | IC50 [9] [µM] | IC50 [10, 22] [µM] | further results
1 | Cc1cc(C)cc(C(=O)OCC[S+]([O-])c2ccnc3cc(Cl)ccc23)c1 (centres unmarked) [Compound 50, 2-[(7-Chloroquinolin-4-yl)sulfinyl]ethyl-3,5-dimethylbenzoate] | 30.8 | 28.5 | 8.57 | 26.9 | 22.3 | 10 | 9.58 | 24 | 15.2 | 1.32 | 7.1 | 7.99 | 
2 | COc1ccc(C(=O)OCCC[S+]([O-])c2ccnc3cc(Cl)ccc23)cc1 (centres unmarked) [Compound 53, 3-[(7-Chloroquinolin-4-yl)sulfinyl]propyl-4-methoxybenzoate] | 30 | 28.2 | 12.8 | 27.9 | 22.4 | 8.71 | 6.98 | 23.6 | 13.9 | 1.31 | 8.51 | 12.5 | 
3 | COc1cccc(C(=O)OCCC[S+]([O-])c2ccnc3cc(Cl)ccc23)c1OC (centres unmarked) [Compound 54, 3-[(7-Chloroquinolin-4-yl)sulfinyl]propyl-2,3-dimethoxybenzoate] | 30.4 | 26.9 | 17.2 | 27.2 | 25.1 | 10.1 | 7.63 | 25.8 | 14.1 | 1.09 | 9.19 | 14 | 
4 | COc1cc(OC)cc(C(=O)OCCC[S+]([O-])c2ccnc3cc(Cl)ccc23)c1 (centres unmarked) [Compound 55, 3-[(7-Chloroquinolin-4-yl)sulfinyl]propyl-,5-dimethoxybenzoate] |  |  |  |  |  |  |  |  |  |  |  |  | IC50 [11]: > 50 µM
5 | COc1cc(C(=O)OCCC[S+]([O-])c2ccnc3cc(Cl)ccc23)cc(OC)c1OC (centres unmarked) [Compound 57, 3-[(7-Chloroquinolin-4-yl)sulfinyl]propyl-3,4,5-trimethoxybenzoate] | 33 | 31.9 | 21.3 | 29.9 | 25.8 | 16 | 14.6 | 30.5 | 17.4 | 1.51 | 14.8 | 19.3 | 
6 | COc1ccc(C(=O)OCCC[S+]([O-])c2ccnc3cc(Cl)ccc23)cc1[N+](=O)[O-] (centres unmarked) [Compound 59, 3-[(7-Chloroquinolin-4-yl)sulfinyl]propyl-4-methoxy-3-nitrobenzoate] | 21.6 | 10.2 | 5.15 | 23.7 | 10.3 | 8.81 | 6.12 | 7.76 | 8.77 | 1.2 | 6.81 | 8.86 | 
7 | Cc1ccc([N+](=O)[O-])c(C(=O)OCCC[S+]([O-])c2ccnc3cc(Cl)ccc23)c1 (centres unmarked) [Compound 60, 3-[(7-Chloroquinolin-4-yl)sulfinyl]propyl-5-methyl-2-nitrobenzoate] | 29 | 18.1 | 5.81 | 29.4 | 19.8 | 7.27 | 4.26 | 9.55 | 8.86 | 1.13 | 6.06 | 7.77 | 
8 | Cc1cc(C)cc(C(=O)OCCC[S+]([O-])c2ccnc3cc(Cl)ccc23)c1 (centres unmarked) [Compound 61, 3-[(7-Chloroquinolin-4-yl)sulfinyl]propyl-3,5-dimethylbenzoate] | 30.3 | 27.6 | 8.1 | 26.1 | 22.1 | 8.35 | 6.76 | 10.9 | 12.7 | 1.05 | 6.89 | 8.26 | 
9 | O=C(OCCC[S+]([O-])c1ccnc2cc(Cl)ccc12)c1ccc(C(F)(F)F)cc1 (centres unmarked) [Compound 62, 3-[(7-Chloroquinolin-4-yl)sulfinyl]propyl-4-(trifluoromethyl)benzoate] | 29.9 | 30.1 | 14.3 | 29.4 | 25.9 | 10.5 | 9.15 | 26.1 | 17.6 | 1.17 | 9.61 | 15.7 | 
10 | COc1cc(C(=O)OCCS(=O)(=O)c2cc[n+]([O-])c3cc(Cl)ccc23)cc(OC)c1OC [Compound 67, 2-[(N-Oxide 7-chloroquinolin-4-yl)sulfonyl]ethyl-3,4,5-trimethoxybenzoate] | 24.8 | 11.9 | 9.23 | 5.79 | 3.24 | 8.93 | 5.19 | 28.4 | 6.05 | 1.05 | 7.87 | 11.1 | 
11 | Cc1ccc(C)c(C(=O)OCCS(=O)(=O)c2cc[n+]([O-])c3cc(Cl)ccc23)c1 [Compound 71, 2-[(N-Oxide 7-chloroquinolin-4-yl)sulfonyl]ethyl-,5-dimethylbenzoate] |  |  |  |  |  |  |  |  |  |  |  |  | IC50 [11]: > 50 µM
12 | COc1cccc(C(=O)OCCCS(=O)(=O)c2cc[n+]([O-])c3cc(Cl)ccc23)c1OC [Compound 74, 3-[(N-Oxide 7-chloroquinolin-4-yl)sulfonyl]propyl-2,3-dimethoxybenzoate] |  |  |  |  |  |  |  |  |  |  |  |  | IC50 [12]: 14.9 µM; IC50 [13]: 10.5 µM; IC50 (U2OS (osteosarcoma)): 5.4 µM; IC50 [14]: 20.4 µM; IC50 [15]: 16.2 µM; IC50 [4]: 5.58 µM; IC50 [5]: 4.91 µM; IC50 [6]: 5.35 µM; IC50 [7]: 2.71 µM; Selectivity for leukemic and colorectal cancer cells compared to MRC-5 ([11]; leukemic and colorectal (with and without p53 deletion) cancer cells vs MRC-5): good selectivity; IC50 [8]: 1.41 µM; IC50 [10]: 3.23 µM
